From ChEMBL document CHEMBL1143348, “Design, synthesis, and cytoprotective effect of 2-aminothiazole analogues as potent poly(ADP-ribose) polymerase-1 inhibitors” (J Med Chem, 2009)

Tests used:
[1] = test system: PC-12; test: Cytoprotective activity against oxygen-glucose deprivation-induced apoptosis in rat PC12 assessed as late apoptotic cells at 3 uM by flow cytometry using FITC-conjugated annexin V and propidium iodide staining relative to control; type: functional
[2] = test system: PC-12; test: Cytoprotective activity against oxygen-glucose deprivation-induced apoptosis in rat PC12 assessed as total apoptotic cells at 3 uM by flow cytometry using FITC-conjugated annexin V and propidium iodide staining relative to control; type: functional
[3] = target: Poly [ADP-ribose] polymerase 1 (Homo sapiens, UniProt P09874)
Description: Inhibition of human recombinant PARP1

[4] = test system: PC-12; test: Cytoprotective activity in rat PC12 cells assessed as reduction in oxygen-glucose deprivation-induced LDH release at 3 uM; type: functional; set-up: scale not given: the % may be the effect or the level left
[5] = test system: PC-12; test: Cytoprotective activity against H2O2-induced cell death in rat PC12 cells by MTT assay after 6 hrs; type: functional, cell-based; conditions: PC-12, 6 h
[6] = test system: PC-12; test: Cytoprotective activity against oxygen-glucose deprivation-induced apoptosis in rat PC12 assessed as early apoptotic cells at 3 uM by flow cytometry using FITC-conjugated annexin V and propidium iodide staining relative to control; type: functional
[7] = test system: PC-12; test: Cytoprotective activity against oxygen-glucose deprivation-induced cell death in rat PC12 cells by MTT assay; type: functional, cell-based
[8] = test system: PC-12; test: Cytoprotective activity against oxygen-glucose deprivation-induced apoptosis in rat PC12 assessed as live cells at 3 uM by flow cytometry using FITC-conjugated annexin V and propidium iodide staining relative to control; type: functional
[9] = test system: PC-12; test: Cytoprotective activity against oxygen-glucose deprivation-induced apoptosis in rat PC12 assessed as damaged cells at 3 uM by flow cytometry using FITC-conjugated annexin V and propidium iodide staining relative to control; type: functional

Poly [ADP-ribose] polymerase 1, sequence (P09874 whole entry): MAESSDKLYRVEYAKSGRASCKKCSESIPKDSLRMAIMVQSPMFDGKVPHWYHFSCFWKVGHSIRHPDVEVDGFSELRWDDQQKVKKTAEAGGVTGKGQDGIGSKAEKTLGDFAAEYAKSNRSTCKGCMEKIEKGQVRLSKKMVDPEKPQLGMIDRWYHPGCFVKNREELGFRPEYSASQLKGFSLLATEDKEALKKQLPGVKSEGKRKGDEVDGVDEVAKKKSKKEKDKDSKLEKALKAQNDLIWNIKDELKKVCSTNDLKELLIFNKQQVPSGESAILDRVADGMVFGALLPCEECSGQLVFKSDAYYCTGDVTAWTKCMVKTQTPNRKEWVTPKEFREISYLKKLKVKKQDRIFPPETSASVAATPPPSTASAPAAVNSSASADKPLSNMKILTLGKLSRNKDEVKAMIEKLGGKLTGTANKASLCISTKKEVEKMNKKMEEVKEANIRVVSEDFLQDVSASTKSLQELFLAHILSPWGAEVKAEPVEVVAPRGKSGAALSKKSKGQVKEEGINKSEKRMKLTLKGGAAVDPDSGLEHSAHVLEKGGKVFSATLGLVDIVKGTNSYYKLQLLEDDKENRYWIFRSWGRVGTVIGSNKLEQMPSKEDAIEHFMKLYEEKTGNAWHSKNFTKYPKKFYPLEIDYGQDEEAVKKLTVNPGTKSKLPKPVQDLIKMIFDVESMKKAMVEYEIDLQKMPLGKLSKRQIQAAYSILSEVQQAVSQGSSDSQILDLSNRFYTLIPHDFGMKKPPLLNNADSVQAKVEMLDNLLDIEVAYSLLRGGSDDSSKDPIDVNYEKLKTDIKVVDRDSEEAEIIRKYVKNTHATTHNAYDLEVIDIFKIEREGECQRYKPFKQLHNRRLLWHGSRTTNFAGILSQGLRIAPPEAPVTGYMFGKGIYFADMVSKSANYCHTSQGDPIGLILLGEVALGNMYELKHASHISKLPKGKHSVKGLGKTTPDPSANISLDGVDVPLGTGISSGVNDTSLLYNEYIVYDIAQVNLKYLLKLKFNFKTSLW

SMILES	IC50 [3] [µM]	EC50 [5] [µM]	EC50 [7] [µM]	further results
O=C(/C=C/c1ccccc1)Nc1nc(-c2ccccc2)cs1	0.224	0.129	0.559	Activity [1]: 3.7%; Activity [2]: 64.4%; Activity [4]: 33.1%; Activity [6]: 8.4%; Activity [8]: 84%; Activity [9]: 3.9%
Nc1ncnc2c1ncn2[C@@H]1O[C@H](COCNC(=O)CCC(=O)Nc2cccc3c2CNC3=O)[C@@H](O)[C@H]1O	0.1	–	–	–
O=C(CCn1c2c(c(=O)[nH]c1=O)CSCC2)NCC(=O)c1ccc(-c2ccnnc2)cc1	0.025	–	–	–
COc1cc(/C=C/C(=O)Nc2nc3c(s2)CCCC3)cc(OC)c1	9.33	2.09	1.04	–
COc1cc(/C=C/C(=O)Nc2nc(-c3ccccc3)cs2)cc(OC)c1	4.53	1.12	0.527	Activity [4]: 24%
O=c1[nH]c(CCCN2CC=C(c3ccccc3)CC2)nc2cccc(Cl)c12	0.682	–	–	–
O=C(Nc1nc(-c2ccccc2)cs1)c1ccncc1	0.753	1.55	0.191	Activity [1]: 11.6%; Activity [2]: 45.1%; Activity [4]: 20.1%; Activity [6]: 8.6%; Activity [8]: 73.8%; Activity [9]: 6%
CCOC(=O)c1ccc(CCc2nc3cccc4c3n2CCNC4=O)cc1	0.097	–	–	–
CCOC(=O)CCC(=O)Nc1nc2c(s1)CCCC2	12.4	> 3	0.961	–
CN(C)CCCOc1ccc(-c2nc3cccc4c3n2CCNC4=O)cc1	0.063	–	–	–
O=c1[nH]c2ccc(CCN3CC=C(c4ccccc4)CC3)cc2c2ccccc12	0.046	–	–	–
O=c1[nH]c(CCCN2CC=C(c3ccccc3)CC2)nc2c1CCC2	0.249	–	–	–
O=c1[nH]c2ccc(CCCN3CC=C(c4ccccc4)CC3)cc2c2ccccc12	0.119	–	–	–
CCOC(=O)CCC(=O)Nc1nc(-c2ccccc2)cs1	0.24	0.537	0.143	Activity [1]: 5.9%; Activity [2]: 70.7%; Activity [4]: 34.6%; Activity [6]: 8.5%; Activity [8]: 80.6%; Activity [9]: 5%
O=C1NCCn2c(CN3CCCCC3)cc3cccc1c32	0.109	–	–	–
CC1CCc2nc(CCCN3CC=C(c4ccccc4)CC3)[nH]c(=O)c2C1 (configuration not stated)	0.274	–	–	–
CCOc1ccc(-c2csc(/N=C/c3c[nH]c4ccccc34)n2)c(OCC)c1	0.24	0.324	0.361	Activity [4]: 28.4%
Cc1sc(-c2ccccc2)nc1C(=O)Nc1cccc(Cc2n[nH]c(=O)c3ccccc23)c1	0.027	–	–	–
